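Interpolation was linear, between the two tested concentrations surrounding the appropriate level; five concentrations were tested over 48 hours in 96-well plates. TGI marks complete inhibition of growth.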
Legend:
Test in all cases: NCI tumour cell line growth inhibition, 48 h
[1] = test system: 786-0 renal
[2] = test system: SK-OV-3 ovarian
[3] = test system: UACC-257 melanoma
[4] = test system: MOLT-4 leukemia
[5] = test system: NCI-H226 lung
[6] = test system: M19-MEL melanoma
[7] = test system: KM20L2 colon
[8] = test system: A549 NSCLC
[9] = test system: LOX IMVI melanoma
[10] = test system: SK-MEL-2 melanoma
[11] = test system: RXF 393 renal
[12] = test system: UACC-62 melanoma
[13] = test system: SN12C renal
[14] = test system: OVCAR-3 ovarian
[15] = test system: HOP-62 NSCLC
[16] = test system: M14 melanoma
[17] = test system: SF-539 CNS
[18] = test system: CAKI-1 renal
[19] = test system: NCI-H460 lung
[20] = test system: HCC-2998 colon
[21] = test system: COLO 205 colon
[22] = test system: TK-10 renal
[23] = test system: NCI-H23 lung
[24] = test system: HT29 colon
[25] = test system: OVCAR-8 ovarian
[26] = test system: K-562 leukemia
[27] = test system: SNB-75 CNS
[28] = test system: SNB-78 CNS
[29] = test system: A498 renal
[30] = test system: OVCAR-5 ovarian
[31] = test system: RPMI-8226 leukemia
[32] = test system: SF-295 CNS
[33] = test system: UO-31 renal
[34] = test system: NCI-H522 lung
[35] = test system: DMS 273 small cell lung
[36] = test system: SR leukemia
[37] = test system: HOP-18 NSCLC
[38] = test system: CCRF-CEM leukemia
[39] = test system: OVCAR-4 ovarian
[40] = test system: HOP-92 NSCLC
[41] = test system: LXFL 529 NSCLC
[42] = test system: U251 CNS
[43] = test system: SW-620 colon
[44] = test system: SK-MEL-5 melanoma
[45] = test system: KM12 colon
[46] = test system: HCT-15 colon
[47] = test system: ACHN renal
[48] = test system: SK-MEL-28 melanoma
[49] = test system: DLD-1 colon
[50] = test system: SF-268 CNS
[51] = test system: HCT-116 colon
[52] = test system: IGROV1 ovarian
[53] = test system: DMS 114 small cell lung
[54] = test system: XF 498 CNS
[55] = test system: HL-60(TB) leukemia
[56] = test system: EKVX NSCLC
[57] = test system: SNB-19 CNS
[58] = test system: MALME-3M melanoma

With `c1ccc2cc(C3NCCc4[nH]cnc43)ccc2c1` (stereo unspecified) the TGI [1] was > 100 µM, the TGI [2] was > 100 µM and the TGI [3] was 70.9 µM. For the same compound, the TGI [4] was 57.9 µM, the TGI [5] was > 100 µM and the TGI [6] was > 100 µM. The TGI [7] was > 100 µM, the TGI [8] was > 100 µM and the TGI [9] was > 100 µM. For the same compound, the TGI [10] was > 100 µM, the TGI [11] was > 100 µM and the TGI [12] was > 100 µM. The TGI [13] was > 100 µM, the TGI [14] was > 100 µM and the TGI [15] was > 100 µM. For the same compound, the TGI [16] was > 100 µM, the TGI [17] was > 100 µM and the TGI [18] was > 100 µM. For the same compound, the TGI [19] was > 100 µM, the TGI [20] was > 100 µM and the TGI [21] was 62.5 µM. The TGI [22] was 82.1 µM, the TGI [23] was > 100 µM and the TGI [24] was > 100 µM. The TGI [25] was > 100 µM, the TGI [26] was > 100 µM and the TGI [27] was > 100 µM. For the same compound, the TGI [28] was > 100 µM, the TGI [29] was 88.5 µM and the TGI [30] was > 100 µM. The TGI [31] was > 100 µM, the TGI [32] was > 100 µM and the TGI [33] was > 100 µM. For the same compound, the TGI [34] was > 100 µM, the TGI [35] was > 100 µM and the TGI [36] was > 100 µM. The TGI [37] was > 100 µM, the TGI [38] was 91.6 µM and the TGI [39] was > 100 µM. The TGI [40] was > 100 µM, the TGI [41] was > 100 µM and the TGI [42] was > 100 µM. For the same compound, the TGI [43] was > 100 µM, the TGI [44] was 45.3 µM and the TGI [45] was 56.2 µM. The TGI [46] was > 100 µM, the TGI [47] was > 100 µM and the TGI [48] was > 100 µM. The TGI [49] was > 100 µM, the TGI [50] was > 100 µM and the TGI [51] was > 100 µM. For the same compound, the TGI [52] was > 100 µM and the TGI [53] was > 100 µM.

In the case of `CN1CCS(=O)(=O)NC(Cc2ccccc2)C(=O)N2CCCC2C1=O` (stereo unspecified), the TGI [1] is reported as > 100 µM, the TGI [2] is reported as > 100 µM and the TGI [3] is reported as > 100 µM. The TGI [4] was > 100 µM, the TGI [5] was > 100 µM and the TGI [6] was > 100 µM. For the same compound, the TGI [7] was > 100 µM, the TGI [8] was > 100 µM and the TGI [9] was > 100 µM. The TGI [10] was > 100 µM, the TGI [12] was > 100 µM and the TGI [13] was > 100 µM. The TGI [14] was > 100 µM, the TGI [15] was > 100 µM and the TGI [54] was > 100 µM. The TGI [17] was > 100 µM, the TGI [55] was > 100 µM and the TGI [18] was > 100 µM. For the same compound, the TGI [56] was > 100 µM, the TGI [20] was > 100 µM and the TGI [21] was > 100 µM. For the same compound, the TGI [22] was > 100 µM, the TGI [23] was > 100 µM and the TGI [24] was > 100 µM. For the same compound, the TGI [25] was > 100 µM, the TGI [26] was > 100 µM and the TGI [27] was > 100 µM. The TGI [28] was > 100 µM, the TGI [29] was > 100 µM and the TGI [30] was > 100 µM. The TGI [31] was > 100 µM, the TGI [32] was > 100 µM and the TGI [33] was > 100 µM. The TGI [34] was > 100 µM, the TGI [35] was > 100 µM and the TGI [37] was > 100 µM. For the same compound, the TGI [38] was > 100 µM, the TGI [39] was > 100 µM and the TGI [41] was > 100 µM. The TGI [57] was > 100 µM, the TGI [42] was > 100 µM and the TGI [43] was > 100 µM. The TGI [44] was > 100 µM, the TGI [45] was > 100 µM and the TGI [46] was > 100 µM. The TGI [47] was > 100 µM, the TGI [48] was > 100 µM and the TGI [49] was > 100 µM. The TGI [50] was > 100 µM, the TGI [58] was > 100 µM and the TGI [51] was > 100 µM. The TGI [52] was > 100 µM and the TGI [53] was > 100 µM.
